Patent US9783838B2, “PmST3 enzyme for chemoenzymatic synthesis of alpha-2-3-sialosides” (The Regents of the University of California, priority 2012, dated 2017)
Where two headings read alike, the source gives them in different places.

Key:
[1] = molecular target: T1, PmST1 (Pasteurella multocida, UniProt Q15KI8); settings: cited from earlier work
[2] = system: PmST2; settings: cited from earlier work
[3] = system: CstI; settings: truncated monofunctional α2-3-sialyltransferase CstI; cited from earlier work
[4] = molecular target: T2, PmST3Δ35-His6 (Pasteurella multocida, UniProt Q9CLP3); experiment: Acceptor substrate specificity of PmST3Δ35-His6; format: biochemical; settings: acceptor 2 mM, CMP-Neu5Ac 2 mM, 37° C., pH 7.5
Procedure: All reactions were carried out in duplicate at 37° C. in Tris-HCl (200 mM, pH 7.5) containing an acceptor substrate (2 mM), CMP-Neu5Ac (2 mM), and PmST3Δ35-His6 (0.25 μg μl^−1). At 10 min or 4 hr, aliquots of reaction mixture were withdrawn and added to pre-chilled acetonitrile:water (20:80) (for reactions with acceptors containing 2-aminobenzoic acid (2AA) or 4-methylumbelliferone (MU) aglycone) or pre-chilled 95% ethanol (for reactions with acceptor containing Pro-triazole-C14 or pNP aglycone) and samples were kept on ice until being analyzed. Samples with acceptors containing 2AA (315 nm excitation and 400 nm emission) or MU (326 nm excitation and 372 nm emission) were analyzed by HPLC equipped with a fluorescent detector. Samples with acceptor containing Pro-triazole-C14 (214 nm) or pNP (300 nm) aglycone were centrifuged at 13,000 rpm for 5 min and analyzed by capillary electrophoresis (CE) equipped with a photodiode array (PDA) detector as described previously using sodium borate buffer (50 mM, pH 10.2) containing β-cyclcodextrin (20 mM) as a running buffer (Glycobiology, 21:1206-1216).

[5] = molecular target: T2, PmST3Δ35-His6; format: biochemical
Procedure: For metal effects, various concentrations (1, 5, 10, or 20 mM) of MgCl2 or MnCl2 were used. Ethylenediaminetetraacetic acid (EDTA) as a chelating agent was used at two concentrations (1 or 10 mM). A reducing reagent dithiothreitol (DTT) was used at two concentrations (1 or 10 mM). Reaction without metal ions, EDTA, or DTT was used as a control. The reaction was quenched by adding 490 μl of pre-chilled acetonitrile:water (20:80). Samples were kept on ice until being analyzed by HPLC equipped with a fluorescent detector (315 nm excitation and 400 nm emission).

[6] = system: PmST2; settings: up to 20 mM; cited from earlier work
[7] = molecular target: T1, PmST1; settings: cited from earlier work; remark: listed apart in the source
[8] = system: CC(=O)N[C@H]1[C@H]([C@H](O)[C@H](O)CO)O[C@](OP(=O)(O)OC[C@H]2O[C@@H](n3ccc(N)nc3=O)[C@H](O)[C@@H]2O)(C(=O)O)C[C@@H]1O; experiment: purified protein, by the assay type; settings: other: apparent, 37° C., Tris-HCl pH 7.5, other substrate fixed at 1 mM
Procedure: Reactions were carried out in duplicate at 37° C. for 7 min in a total volume of 10 μl in a Tris-HCl buffer (200 mM, pH 7.5).

[9] = pH profile of α2-3-sialyltransferase activity; format: biochemical
Procedure: pH profile of PmST3Δ35-His6. Reactions were carried out in duplicate at 37° C. for 10 min. […] Buffers used were: MES-KOH (pH 4.0-6.5), Tris-HCl (pH 7.0-9.0), and CHES (pH 10.0). Enzymatic reaction was quenched by adding 490 μl of pre-chilled acetonitrile:water (20:80) mixture. The samples were kept on ice until being analyzed by a Shimadzu LC-2010A HPLC system equipped with a membrane on-line degasser, a temperature control unit, and a fluorescence detector (the excitation wavelength was set at 315 nm and the emission wavelength was set at 400 nm) using a reverse phase Premier C18 column (250×4.6 mm I.D., 5 μm particle size, Shimadzu) protected with a C18 guard column cartridge. Mobile phase used was 20% acetonitrile in water.

[10] = Storage stability of purified truncated PmST3 proteins; format: physicochemical
Procedure: To further improve the expression of the soluble and active protein, three C-terminal truncated versions of PmST3 (PmST3Δ20-His6, PmST3Δ35-His6, and PmST3Δ45-His6 with the removal of C-terminal 20, 35, and 45 amino acid residues) were cloned into pET22b(+) vector as C-His6 (SEQ ID NO:37) tagged fusion proteins. […] For PmST3Δ45-His6, the expression of soluble protein was improved to the level of MBP fusion protein (4 mg of purified protein from 1 liter of cell culture by Ni^2+-NTA affinity chromatography). However, PmST3Δ45-His6 seemed to have stability issues. […] Under the same expression conditions, purified PmST3Δ35-His6 can be routinely obtained at a level of 29 mg from cell lysate from one liter of cell culture.

[11] = Comparison of three Pasteurella multocida sialyltransferases (activities and acceptor use); format: biochemical

For `CC(=O)N[C@H]1[C@H]([C@H](O)[C@H](O)CO)O[C@](OP(=O)(O)OC[C@H]2O[C@@H](n3ccc(N)nc3=O)[C@H](O)[C@@H]2O)(C(=O)O)C[C@@H]1O` [CMP-Neu5Ac, Cytidine 5′-monophosphate N-acetylneuraminic acid], the Km [1] is given as 440 µM, the Km [2] is given as 1300 ± 100 µM and the Km [3] is given as 400 µM.

With `O=[N+]([O-])c1ccc(O[C@@H]2O[C@H](CO)[C@H](O)[C@H](O)[C@H]2O)cc1` [GalβpNP, p-nitrophenyl β-galactoside] the “% Conv. (10 min)” value [4] was less than 1% and the “% Conv. (4 h)” value [4] was 9.4 ± 0.4%.

With `Cc1cc(=O)oc2cc(O[C@@H]3O[C@H](CO)[C@@H](O[C@@H]4O[C@H](CO)[C@H](O)[C@H](O)[C@H]4O)[C@H](O)[C@H]3O)ccc12` [LacβMU, 4-methylumbelliferyl β-lactoside] the “% Conv. (10 min)” value [4] was 29.9 ± 1.2% and the “% Conv. (4 h)” value [4] was 65.6 ± 1.6%.

For `O[C@H](CS)[C@H](O)CS` (racemic) [DTT, dithiothreitol], the “effect on enzyme activity” value ([5]; DTT 1 or 10 mM) was “Change of activity was not observed”.

In the case of `[Cl][Mn][Cl]` [MnCl2], the “effect on enzyme activity” value ([5]; MnCl2 or MgCl2 up to 20 mM) is listed as “did not affect”, the “effect on enzyme activity” value [6] is listed as “did not affect” and the “effect on α2-3-sialyltransferase activity” value ([7]; 5 mM or 10 mM) is listed as “decreased”. The “effect on α2-3-sialyltransferase activity” value ([7]; 20 mM) was “almost abolished”.

In the case of `[Cl-].[Cl-].[Mg+2]` [MgCl2], the “effect on enzyme activity” value ([5]; MnCl2 or MgCl2 up to 20 mM) is given as “did not affect” and the “effect on enzyme activity” value [6] is given as “did not affect”.

Work on “PmST3Δ35-His6 (Pasteurella multocida subsp. multocida str. Pm70)” yielded a Km [8] of 260 ± 10 µM, a Vmax [8] of 44 µM/min and a kcat [8] of 0.122 ± 0.00167 s⁻¹. The kcat/Km [8] was 467 M⁻¹ s⁻¹.

With `O=C(O)CN(CCN(CC(=O)O)CC(=O)O)CC(=O)O` [EDTA, Ethylenediaminetetraacetic acid] the “effect on enzyme activity” value ([5]; EDTA up to 10 mM) was “did not affect”.

B1: PmST3Δ35-His6: C-terminal 35 residue truncated, C-His6 tagged PmST3 α2-3-sialyltransferase, SEQ ID NO: 11 (protein)
chain: MDKFAEHEIPKAVIVAGNGESLSQIDYRLLPKNYDVFRCNQFYFEERYFLGNKIKAVFFTPGVFLEQYYTLYHLKRNNEYFVDNVILSSFNHPTVDLEKSQKIQALFIDVINGYEKYLSKLTAFDVYLRYKELYENQRITSGVYMCAVAIAMGYTDIYLTGIDFYQASEENYAFDNKKPNIIRLLPDFRKEKTLFSYHSKDIDLEALSFLQQHYHVNFYSISPMSPLSKHFPIPTVEDDCETTFVAPLKENYINDILLPPHFVYEKLGVDKLAAALEHHHHHH
modifications: synthetic C-terminal truncated Pasteurella multocida sialyltransferase 3 (PmST3, Pm1174) C-His-6 tagged fusion protein PmST3delta35-His-6
With B1 the “optimal pH range for α2-3-sialyltransferase activity” value ([9]; LacβPro2AA as acceptor) was 6.5-9.0, the “activity outside the optimal pH range” value ([9]; pH below 6.0 or 10.0) was “decreased dramatically” and the “storage stability (activity)” value ([10]; after 3 months of storage in 10% glycerol and 25 mM Tris-HCl (pH 7.5) buffer) was “remained active”. For the same molecule, the “Use galactosyl glycolipids as acceptors” value [11] was “Yes”, the “Use galactosyl oligosaccharides as acceptors” value [11] was “Yes” and the α2-3-sialidase activity [11] was “No”. For the same molecule, the α2-3-sialyltransferase activity [11] was “Yes”, the α2-3-trans-sialidase activity [11] was “No” and the α2-6-sialyltransferase activity [11] was “No”.

B2: PmST3Δ45-His6: C-terminal 45 residue truncated, C-His6 tagged PmST3, SEQ ID NO: 12 (protein)
chain: MDKFAEHEIPKAVIVAGNGESLSQIDYRLLPKNYDVFRCNQFYFEERYFLGNKIKAVFFTPGVFLEQYYTLYHLKRNNEYFVDNVILSSFNHPTVDLEKSQKIQALFIDVINGYEKYLSKLTAFDVYLRYKELYENQRITSGVYMCAVAIAMGYTDIYLTGIDFYQASEENYAFDNKKPNIIRLLPDFRKEKTLFSYHSKDIDLEALSFLQQHYHVNFYSISPMSPLSKHFPIPTVEDDCETTFVAPLKENYINDILLVDKLAAALEHHHHHH
modifications: synthetic C-terminal truncated Pasteurella multocida sialyltransferase 3 (PmST3, Pm1174) C-His-6 tagged fusion protein PmST3delta45-His-6
For B2, the “storage stability (precipitation)” value ([10]; after 3 days of storage at 4° C. after dialysis against 10% glycerol and 25 mM Tris-HCl, pH 7.5) was “Precipitation was observed”.
